Drawing on patent US20220025058A1, “METHODS AND PHARMACEUTICAL COMPOSITIONS FOR THE TREATMENT OF ACUTE MYELOID LEUKEMIA BY ERADICATING LEUKEMIC STEM CELLS” (INSERM (INSTITUT NATIONAL DE LA SANTÉ ET DE LA RECHERCHE …, priority 2018, published 2022), this text covers EC50 for two molecules.

As a reminder, the EC50 is the concentration that produces a half-maximal response. A high value points to a less potent agent.

This experiment concerns MOLM-14 cells. Kind of experiment: EC50 experiments (MTS cell viability) on MOLM-14 cells sorted from xenografted mice. The format is cell-based. To be noted: Homo sapiens, MOLM-14, 168 h, after one week of in vitro culture. The method, then: The day before experiment, cells were adjusted to 3×10^5 cells/ml final concentration and plated in a 96-well plate (final volume: 100 μl). To measure half-maximal inhibitory concentration (EC50), increased concentrations of AraC or idarubicin were added to the medium. After two days, 20 μl per well of MTS solution (Promega) was added for two hours and then absorbance was recorded at 490 nm with a 96-well plate reader. The doses that decrease cell viability to 50% (EC50) were analyzed Nonlinear regression log [inhibitor] vs. normalized response-variable slope with GraphPad Prism software.
After 10 days, shRNA expression was activated and the mice were treated with 30 mg/kg/day cytarabine for 5 days (FIG. 2A). […] Also MOLM-14 expressing shCTR and treated by vehicle or AraC were sorted by flow cytometry, and plated in vitro for further experiments. […] To evaluate the role of CALCRL in this chemoresistance acquired in vivo, we undertook to deplete CALCRL in these cells.

Where [1] appears, read: MOLM-14 shCTR cells from AraC treated group mice.
Where [2] appears, read: MOLM-14 shCTR cells from vehicle group mice.

Take `CC(=O)[C@]1(O)Cc2c(O)c3c(c(O)c2[C@@H](O[C@H]2C[C@H](N)[C@H](O)[C@H](C)O2)C1)C(=O)c1ccccc1C3=O` [idarubicin]: the EC50 reads like this: under setting [1], 60.5 nM; under setting [2], 28.6 nM.
On the same counts, the results for `Nc1ccn([C@@H]2O[C@H](CO)[C@@H](O)[C@@H]2O)c(=O)n1` [AraC, cytarabine] are 6710 nM and 2240 nM.
